Source: patent US20100119599A1 (ARCHER PHARMACEUTICALS, INC., priority 2006, published 2010)
Like-named read-outs stand apart in the source and are kept apart here.

Experiments:
Aβ1-42 = test: Measurement of Aβ1-42 in culture medium of 7W WT APP751 CHO cells by ELISA; assay type: cell-based, Chinese hamster; settings: for Aβ1-42 (% of control): CHO cells that overexpress APP751, zero = below the detection limit of the assay; for activity at 5 µM: Cricetulus griseus, 5 μM test compound, CHO cells stably transfected with human APP751, culture medium, ELISA, control DMSO;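 on Aβ1-42 (% of control): 5 µM test compound but RI-coded compounds at 10 µM for 24 hours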
Aβ1-40 = test: Measurement of Aβ1-40 in culture medium of 7W WT APP751 CHO cells by ELISA; assay type: cell-based, Chinese hamster; settings: for Aβ1-40 (% of control): CHO cells that overexpress APP751, zero = below the detection limit of the assay; for activity at 5 µM: Cricetulus griseus, 5 μM test compound, CHO cells stably transfected with human APP751, culture medium, ELISA, control DMSO;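 on all read-outs here: 5 µM test compound but RI-coded compounds at 10 µM for 24 hours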
[1] = Table 1, 0 = no detectable amount, read-out: Aβ1-42 (% of control)
[2] = Table 1, 0 = no detectable amount

Row | SMILES | Aβ1-42 (% of control) (Aβ1-42) | Aβ1-40 (% of control) (Aβ1-40) | activity at 5 µM (Aβ1-42; [1]) | activity at 5 µM (Aβ1-40; [2]) | other results
1 | N#CC1=C(N)NC(SCC(N)=O)=C(C#N)C1c1ccccc1Br (stereo not shown) [RI_1] | 75.4 % of control | 93.2 % of control |  |  | 
2 | CCOc1ccc(NC(=O)CSC2=C(C#N)C(c3ccco3)C(C(=O)Nc3ccccc3C)=C(C)N2)cc1 (stereo not shown) [ST051158, 2-{3-cyano-4-(2-furyl)-6-methyl-5-[N-(2-methylphenyl)carbamoyl](2-1,4-dihydropyridylthio)}-N-(4-ethoxyphenyl)acetamide] | 15.87 % of control | 17.68 % of control |  |  | 
3 | CC1=C(C(=O)Nc2ccccc2)C(c2cccs2)C(C#N)=C(SCC(=O)Nc2ccc(C)c(C)c2)N1 (stereo not shown) [ST041706, N-(3,4-dimethylphenyl)-2-[3-cyano-6-methyl-5-(N-phenylcarbamoyl)-4-(2-thienyl) (2-1,4-dihydropyridylthio)]acetamide] | 50.13 % of control | 68.73 % of control |  |  | 
4 | COCCOC(=O)C1=C(C)NC2=C(C(=O)CCC2)C1c1cc(Br)c(O)c(OC)c1 (stereo not shown) [ST013357, 2-methoxyethyl 4-(3-bromo-4-hydroxy-5-methoxyphenyl)-2-methyl-5-oxo-1,4,6,7,8-pentahydroquinoline-3-carboxylate] |  |  | 95.2% | 62.4% | 
5 | O=C(N=C1CC(c2ccccc2)N(c2ccncc2)CC1[N+](=O)[O-])Nc1cccnc1 (stereo not shown) [ST026819, 2-(5-nitro-2-phenyl-1-(4-pyridyl)(4-6-hydropyridylidene))-N-(3-pyridyl)-2-azaace tamide] |  |  |  |  | activity at 5 µM (Aβ1-42; Table 3, read-out: Aβ-42 (% of control)): 57.8%; activity at 5 µM (Aβ1-40; Table 3): 64.9%
6 | CCOC(=O)C1=C(C)NC2=C(C(=O)CCC2)C1c1cc(Br)c(C)s1 (stereo not shown) [ST020910, ethyl 4-(4-bromo-5-methyl(2-thienyl))-2-methyl-5-oxo-1,4,6,7,8-pentahydroquinoline-3-carboxylate] |  |  | 69.8% | 47.3% | 
7 | CC1=C(C(=O)Nc2ccccc2)C(c2cccs2)C(C#N)=C(SCC(=O)Nc2ccc(Oc3ccccc3)cc2)N1 (stereo not shown) [RI_8] | 26.4 % of control | 46.1 % of control |  |  | 
8 | COC(=O)C1=C(C)NC2=C(C(=O)CC(C)(C)C2)C1c1ccc(OCc2ccc(Cl)cc2)c(OC)c1 (stereo not shown) [ST028595, methyl 4-{4-[(4-chlorophenyl)methoxy]-3-methoxyphenyl}-2,7,7-trimethyl-5-oxo-1,4,6,7,8-pentahydroquinoline-3-carboxylate] |  |  | 98.9% | 34.4% | 
9 | COc1ccc(COC(=O)C2=C(C)NC3=C(C(=O)CC(C)(C)C3)C2c2ccc(O)c(OC)c2)cc1 (stereo not shown) [ST017025, (4-methoxyphenyl)methyl 4-(4-hydroxy-3-methoxyphenyl)-2,7,7-trimethyl-5-oxo-1,4,6,7,8-pentahydroquinoline-3-carboxylate] |  |  | 32.2% | 30.1% | 
10 | CCOc1ccc(/C=c2\sc3n(c2=O)C(N)=C(C#N)C(c2ccc(OCC)c(OC)c2)C=3C#N)cc1OC (stereo not shown) [ST025022, 5-amino-7-(4-ethoxy-3-methoxyphenyl)-2-[(4-ethoxy-3-methoxyphenyl)methylene]-3-oxo-4,7-dihydro-1,3-thiazolidino[3,2-a]pyridine-6,8-dicarbonitrile] | 76.11 % of control | 61.31 % of control |  |  | 
11 | CC1=C(C(=O)OCC(C)C)C(c2ccc(Cl)cc2)C2=C(CC(c3ccc(Cl)cc3)CC2=O)N1 (stereo not shown) [ST017070, 2-methylpropyl 4,7-bis(4-chlorophenyl)-2-methyl-5-oxo-1,4,6,7,8-pentahydroquinoline-3-carboxylate] |  |  | 89.1% | 55.4% | 
12 | COc1cc(/C=c2\sc3n(c2=O)C(N)=C(C#N)C(c2ccc(O)c(OC)c2)C=3C#N)ccc1O (stereo not shown) [ST025032, 5-amino-7-(4-hydroxy-3-methoxyphenyl)-2-[(4-hydroxy-3-methoxyphenyl)methylene]-3-oxo-4,7-dihydro-1,3-thiazolidino[3,2-a]pyridine-6,8-dicarbonitrile] | 32.98 % of control | 27.77 % of control |  |  | 
13 | CCOC(=O)C1=C(N)n2c(s/c(=C/c3ccc(C(C)C)cc3)c2=O)=C(C(=O)OCC)C1c1ccc(C(C)C)cc1 (stereo not shown) [ST011764, ethyl 5-amino-6-(ethoxycarbonyl)-7-[4-(methylethyl)phenyl]-2-{[4-(methylethyl)phenyl]methylene}-3-oxo-4,7-dihydro-1,3-thiazolidino[3,2-a]pyridine-8-carboxylate] | 70.37 % of control | 83.4 % of control |  |  | 
14 | CC1=C(C(=O)Nc2ccccc2)C(c2cccs2)C(C#N)=C(SCC(=O)Nc2ccccc2C(C)C)N1 (stereo not shown) [RI_56] | 100 % of control | 54.5 % of control |  |  | 
15 | CCN(CC)c1ccc(C2C(C(=O)OCCOc3ccccc3)=C(C)NC3=C2C(=O)CC(C)(C)C3)cc1 (stereo not shown) [ST015075, 2-phenoxyethyl 4-[4-(diethylamino)phenyl]-2,7,7-trimethyl-5-oxo-1,4,6,7,8-pentahydroquinoline-3-carboxylate] |  |  | 42.2% | 51.7% | 
16 | CCc1ccc(NC(=O)CSC2=C(C#N)C(c3ccsc3)C(C(=O)Nc3ccccc3)=C(C)N2)cc1 (stereo not shown) [RI_62] | 62.4 % of control | 91.6 % of control |  |  | 
17 | CCOc1ccccc1C1C(C(=O)OCCOc2ccccc2)=C(C)NC2=C1C(=O)CC(C)(C)C2 (stereo not shown) [ST052381, 2-phenoxyethyl 4-(2-ethoxyphenyl)-2,7,7-trimethyl-5-oxo-1,4,6,7,8-pentahydroquinoline-3-carboxylate] |  |  | 62% | 45.1% | 
18 | CCc1cccc(NC(=O)CSC2=C(C#N)C(c3ccc(-c4cccs4)s3)C(C(=O)Nc3ccccc3)=C(C)N2)c1 (stereo not shown) [RI_90] | 42.9 % of control | 63.9 % of control |  |  | 
19 | COC(=O)C1=CN(Cc2ccc(OC)c(OC)c2)C=C(C(=O)OC)C1c1ccc(OC)c(OC)c1 [ST038162, methyl 4-(3,4-dimethoxyphenyl)-1-[(3,4-dimethoxyphenyl)methyl]-5-(methoxycarbonyl)-1,4-dihydropyridine-3-carboxylate] | 58.62 % of control | 49.65 % of control |  |  | 
20 | CC1=C(C(=O)Nc2ccccc2)C(c2cccs2)C(C#N)=C(SCC(=O)Nc2cc(C)cc(C)c2)N1 (stereo not shown) [RI_11] | 35.8 % of control | 52.1 % of control |  |  | 
21 | COc1cc(CNC(=O)CSC2=C(C#N)C(c3cccs3)C(C(=O)Nc3ccccc3)=C(C)N2)cc(OC)c1OC (stereo not shown) [RI_18] | 44.1 % of control | 49.2 % of control |  |  | 
22 | CCCCCOC(=O)C1=C(C)NC2=C(C(=O)CCC2)C1c1cccc(O)c1 (stereo not shown) [ST017336, pentyl 4-(3-hydroxyphenyl)-2-methyl-5-oxo-1,4,6,7,8-pentahydroquinoline-3-carboxylate] |  |  | 72.7% | 62.9% | 
23 | CCOC(=O)C1=CN(c2ccc(F)cc2)C=C(C(=O)OCC)C1c1cccs1 [ST052327, ethyl 5-(ethoxycarbonyl)-1-(4-fluorophenyl)-4-(2-thienyl)-1,4-dihydropyridine-3-carboxylate] | 84.33 % of control | 57.74 % of control |  |  | 
24 | CCCCNC(=O)CSC1=C(C#N)C(c2cccs2)C(C(=O)Nc2ccccc2)=C(C)N1 (stereo not shown) [RI_23] | 35.9 % of control | 49.3 % of control |  |  | 
25 | CCCOC(=O)C1=C(C)NC2=C(C(=O)CCC2)C1c1cccc(O)c1 (stereo not shown) [ST014959, propyl 4-(3-hydroxyphenyl)-2-methyl-5-oxo-1,4,6,7,8-pentahydroquinoline-3-carboxylate] |  |  | 70.2% | 64% | 
26 | COc1cc(C2C(C(=O)OCc3ccccc3)=C(C)NC3=C2C(=O)CCC3)cc(Br)c1O (stereo not shown) [ST013249, phenylmethyl 4-(3-bromo-4-hydroxy-5-methoxyphenyl)-2-methyl-5-oxo-1,4,6,7,8-pentahydroquinoline-3-carboxylate] |  |  | 68% | 0% | 
27 | COc1cc(C2C(C(=O)OCCc3ccccc3)=C(C)NC3=C2C(=O)CC(C)(C)C3)ccc1O (stereo not shown) [ST015094, 2-phenylethyl 4-(4-hydroxy-3-methoxyphenyl)-2,7,7-trimethyl-5-oxo-1,4,6,7,8-pentahydroquinoline-3-carboxylate] |  |  | 59.8% | 56.3% | 
28 | CC1=C(C(=O)OCc2ccccc2)C(c2ccc(C(F)(F)F)cc2)C2=C(CCCC2=O)N1 (stereo not shown) [ST052323, phenylmethyl 2-methyl-5-oxo-4-[4-(trifluoromethyl)phenyl]-1,4,6,7,8-pentahydroquinoline-3-carboxylate] |  |  | 0% | 4.91% | 
29 | CCOC(=O)C1=C(C)NC(C)=C(C(=O)OCC)C1c1c(Cl)cccc1Cl [ST211423, ethyl 4-(2,6-dichlorophenyl)-5-(ethoxycarbonyl)-2,6-dimethyl-1,4-dihydropyridine-3-carboxylate] | 0 % of control | 2.731 % of control |  |  | 
